According to PubChem BioAssay (NCI):
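Exposure lasted 48 hours, with cells grown in 96-well plates and compounds tested at five concentrations. At the GI50, growth is halved. The concentration for full growth arrest is given as TGI.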

Tests used:
Experiment in all cases: NCI-60 cell line screen, 48 h
[1] = test system: KM20L2 colon
[2] = test system: MOLT-4 leukemia
[3] = test system: SW-620 colon
[4] = test system: RPMI-8226 leukemia
[5] = test system: UACC-257 melanoma
[6] = test system: DMS 273 small cell lung
[7] = test system: HCT-15 colon
[8] = test system: M19-MEL melanoma
[9] = test system: HT29 colon
[10] = test system: A498 renal
[11] = test system: CAKI-1 renal

Row | SMILES | TGI [1] | TGI [2] | TGI [3] | TGI [4] | TGI [5] | TGI [6] | TGI [7] | TGI [8] | TGI [9] | GI50 [2] | GI50 [3] | TGI [10] | GI50 [4] | GI50 [7] | GI50 [8] | TGI [11] | GI50 [11] | GI50 [5] | GI50 [6] | GI50 [9]
1 | CC(C)CCS(=O)(=O)OCCCCOS(=O)(=O)CCC(C)C | > 100 µM | > 100 µM | > 100 µM | > 100 µM | > 100 µM | > 100 µM | > 100 µM | > 100 µM | > 100 µM | – | – | – | – | – | – | – | – | – | – | –
2 | O=C(NC(=O)c1ccccc1[N+](=O)[O-])Nc1ccc(Oc2ncc(Br)cn2)c(Cl)c1 | 0.059 µM | – | – | – | 0.0434 µM | 0.0212 µM | > 42.7 µM | – | 0.0568 µM | < 0.0222 µM | < 0.0187 µM | 0.052 µM | < 0.02 µM | < 0.0258 µM | < 0.0229 µM | – | – | – | – | –
3 | CCC(C(=O)O)c1ccc(OC)cc1 (stereo not given) | > 100 µM | > 100 µM | > 100 µM | > 100 µM | > 100 µM | > 100 µM | – | > 100 µM | > 100 µM | – | – | > 100 µM | – | – | – | > 100 µM | – | – | – | –
4 | CCCCC#C[I+]c1ccccc1 | 35.9 µM | 23.9 µM | – | – | 30.8 µM | 40.9 µM | 30 µM | 30.1 µM | 32 µM | – | – | 48.2 µM | – | – | – | 27.1 µM | – | – | – | –
5 | O=C(CCN1CCCCC1)C(=Cc1ccccc1)C(=O)CCN1CCCCC1 | > 100 µM | 42.3 µM | – | 57.9 µM | > 100 µM | > 100 µM | – | > 100 µM | > 100 µM | 4.32 µM | 1.76 µM | > 100 µM | 4.49 µM | 3.07 µM | – | > 100 µM | 80.4 µM | 87.4 µM | 7.61 µM | 76.3 µM
6 | C=C(C)C(=O)OC1C/C(CO)=C\C(O)C/C(C)=C/C2OC(=O)C(=C)C21 (stereo not given) | 97.3 µM | 56.2 µM | 33.3 µM | 45.6 µM | – | > 100 µM | 29.6 µM | 92.7 µM | 34.1 µM | – | – | – | – | – | – | 58.7 µM | – | – | – | –
